The record followed here is patent US20200016152A1, “TREATMENT OF DISEASES” (Ampio Pharmaceuticals, Inc., priority 2010, published 2020).

The test system of experiment [1] is RhoA. The experiment in a line: Rho activation assay (GLISA) in retinal endothelial cells. It counts as cell-based, human. The note with it: for active Rho A levels induced: thrombin alone. As to the method: This experiment was performed using a commercially-available Rho activation assay (GLISA) purchased from Cytoskeleton, Denver, Colo., following the manufacturer's protocol. Briefly, passage 8 or 12 human retinal endothelial cells (ACBRI 181, Applied Cell Biology Research Institute, Kirkland, Wash.) were cultured on fibronectin-coated (1 μg/cm^2) 6-well tissue culture plates using EGM-2 culture medium (Lonza) for 24 hours in a 37° C. incubator with 5% CO2 (30,000 cells/well in total volume of 3 ml). Then, the medium was aspirated and replaced with Ultraculture medium supplemented with 0.1% fetal bovine serum, L-glutamine, sodium pyruvate, penicillin/streptomycin and ITSS (insulin, transferrin sodium selenium) (all from Lonza) to serum starve the cells and reduce the background level of RhoA. The cells were cultured for 24 hours in a 37° C. incubator with 5% CO2. Test compounds diluted in HBSS were placed in the incubator to equilibrate before addition to the cells. Then, 150 μl of each test compound was added to the appropriate culture wells, and the plates were incubated in the incubator for an additional 15 minutes. Then, thrombin was added to appropriate wells. After 1 minute, the cells were washed one time with 1.5 ml phosphate buffered saline and were then lysed with 100 μl GLISA lysis buffer supplemented with protease inhibitors. The extracts were scraped, transferred to microcentrifuge tubes and transferred to ice to preserve the active form of RhoA. All extracts were then cleared of debris by spinning at 10,000 rpms for 2 minutes at 4° C. The supernatants were transferred to new tubes and placed back on ice. Aliquots of each extract were removed for the GLISA assay and for protein determinations. All protein concentrations were within 10%, and the extracts were used at the achieved concentrations (equates to 15 total protein per well). The GLISA assay was performed using the reagents supplied in the kit.

The test system of experiment [2] is passage 6 human retinal endothelial cells. The experiment can be described thus: ECIS transendothelial electrical resistance (TER), passage 6 retinal endothelial cells. It counts as cell-based. The note with it: for ECIS as compared to untreated cells: monitored 50 hours. As to the method: Assays were performed to determine the effect of MR-DKP (a diketopiperazine wherein R^1 in formula I is the side chain of methionine and R^2 is side chain of arginine) on transendothelial electrical resistance (TER) of passage 6 human retinal endothelial cells (Applied Cell Systems Corporation (exclusive distributor for Applied Cell Biology Research Institute), Kirkland, Wash.). Electrical resistance was measured using the electric cell-substrate impedance sensing (ECIS) system (ECISZθ, obtained from Applied Biophysics) with 8-well multiple electrode plates (8W10E). Each well of the plates was stabilized by adding 250 μl of 10 mM cysteine (Sigma) in sterile water to each well and incubating for 30 minutes at room temperature. The wells were then washed two times with 150 μl of sterile water to remove the cysteine. All wells were then coated with 10 μg/cm^2 collagen by diluting the stock solution (0.5 mg/ml Type IV collagenin 0.25% acetic acid (Sigma) in sterile water and adding 150 μl of the resulting solution to each well. The collagen solution was incubated on the plates at 37° C. for 120 minutes and then removed. The wells were washed two times with 400 μl sterile water to remove the collagen. Next, 400 μl of EGM-2 culture medium (Lonza) was added to each well. The plates were connected to the ECISZθ system and were electrically stabilized. The EGM-2 medium was aspirated and replaced with 400 μl of EGM-2 culture medium containing 100,000 cells per well. The plates were reconnected to the ECISZθ system and incubated for 24 hours in a 37° C. incubator with 5% CO2. The EGM-2 medium was aspirated and replaced with 400 μl of EGM-2 culture medium. The plates were reconnected to the ECISZθ system and incubated for 2 hours in a 37° C. incubator with 5% CO2. Solutions of the test compound in HBSS were prepared and placed in the incubator to equilibrate. The test compound was then added to appropriate wells at the following final concentrations: MR-DKP (50 μM and 100 ECIS (resistance) was monitored for 50 hours.
Example 5 was repeated, except that the diketopiperazine used was YE-DKP (a diketopiperazine wherein R^1 in formula I is the side chain of glutamic acid and R^2 is the side chain of tyrosine). […] The increase was about 20% at its maximum.

For experiment [3], the system named is human retinal endothelial cells. The experiment in a line: Actin stress fiber formation (rhodamine-phalloidin F-actin staining). It counts as cell-based. As to the method: Passage 12 human retinal endothelial cells (ACBRI 181, Cell Systems Corporation (exclusive distributor for Applied Cell Biology Research Institute), Kirkland, Wash.) were seeded into 16-chamber glass slides coated with 5 μg/cm^2 fibronectin at 5000 cells per well in a total volume of 200 μl of EGM-2 medium (Lonza). The slides were cultured in a 37° C. incubator with 5% CO2 for 48 hours with daily medium changes. Then, the test compounds (DA-DKP, S1P and TNFα), diluted in Hanks Balanced Salt Solution (HBSS; Lonza), were added to give the following final concentrations: DA-DKP (100 μM) (Sigma), TNFα (1 ng/ml) (Sigma), and S1P (1 μM) (Sigma). The slides were incubated with the test compounds for 15 minutes or 3 hours in a 37° C. incubator with 5% CO2. After this incubation, the medium was aspirated, and the cells were fixed using 3.6% formaldehyde in phosphate buffered saline (PBS) for ten minutes at room temperature. All wells were then washed two times with 100 μl PBS. The cells were permeabilized using a 0.1% Triton X-100 in PBS for 5 minutes. All wells were then washed two times with 100 μl PBS, and 50 μl of a 1:40 dilution of rhodamine-phalloidin (Invitrogen) in PBS was added to the cells to stain for F-actin and left on the cells for 20 minutes at room temperature. All wells were then washed two times with 100 μl PBS. Then 100 μl PBS was added to each well and the cells were observed and photographed using an inverted microscope using a rhodamine (ex530/em590) filter.

Setting [4] is: passage 12 cells, 1.0 μM + 0.1 U/ml thrombin.
[5] abbreviates: passage 12 cells, 1.0 μM, no thrombin.
[6] abbreviates: passage 8 cells, 10.0 μM + 0.1 U/ml thrombin.
Where [7] appears, read: passage 8 cells, 10.0 μM, no thrombin.
Where [8] appears, read: passage 12 cells, 10.0 μM + 0.1 U/ml thrombin.
The mark [9] stands for this setting: passage 12 cells, 10.0 μM, no thrombin.

For `C[C@@H]1C[C@H]2[C@@H]3CCC4=CC(=O)C=C[C@]4(C)[C@@]3(F)[C@@H](O)C[C@]2(C)[C@@]1(O)C(=O)CO` [Dexamethasone], in experiment [1] (setting [4]), the “Mean OD (active RhoA)” value is given as 0.826 and the “Percent Inhibition vs. Thrombin” value worked out at 33.48%. In addition, in experiment [1] (setting [5]), the “Mean OD (active RhoA)” value is given as 0.428 and the “Percent Inhibition vs. Untreated Control” value is reported as 5.83%.
Turning to `CSCC[C@@H]1NC(=O)[C@H](CCCNC(=N)N)NC1=O` [MR-DKP], in experiment [2] (50 μM), the “ECIS increase at its maximum” value is listed as “around 20%”; the “brief elevation in resistance, time window” value lay within 2 to 5 h; the “start of ECIS increase” value is “about 15 hours”; the “time at which ECIS increase became significant” value is “about 18 hours”. In experiment [2] (50 μM), the “time at which resistance increased again” value is recorded as “about 30 hours”, the “time at which resistance returned to the levels of the control” value fell in the range of 28 to 29 h, the “time of reaching significance again” value was “about 33 hours” and the “ECIS as compared to untreated cells” value is reported as “increase in ECIS”. In addition, in experiment [2] (50 μM, after the second increase), the “persistence of ECIS increase” value is recorded as “persisted for the remainder of the experiment”. Moreover, in experiment [2] (100 μM), the “ECIS increase at its maximum” value is “around 20%”, the “persistence of ECIS increase” value is reported as “persisted for the remainder of the experiment”, the “start of ECIS increase” value is “about 15 hours” and the “time at which ECIS increase became significant” value is “about 18 hours”. In experiment [2] (100 μM), the “time of reaching significance again” value is “about 33 hours” and the “ECIS as compared to untreated cells” value was “increase in ECIS”.
For the compound `O=c1cc(N2CCOCC2)oc2c(-c3ccccc3)cccc12` [PI3 kinase inhibitor LY 294002], the “Mean OD (active RhoA)” value is reported as 0.433 in experiment [1] (setting [6]), 0.056 in experiment [1] (setting [7]), 0.685 in experiment [1] (setting [8]) and 0.370 in experiment [1] (setting [9]). In addition, the “Percent Inhibition vs. Thrombin” value in experiment [1] (setting [6]) came to 27.86%; in experiment [1] (setting [8]), 58.73%. Moreover, the “Percent Inhibition vs. Untreated Control” value was found to be 45.32% in experiment [1] (setting [7]) and 18.70% in experiment [1] (setting [9]).
`CCCCCCCCCCCCC/C=C/[C@@H](O)[C@@H](N)COP(=O)(O)O` [S1P, sphingosine-1 phosphate, reference compound]: the F-actin staining pattern entry in experiment [3] (S1P 1 μM alone, 15 minutes and 3 hours) is on record as “actin cortical rings”.
As for `COc1cc2ncnc(Nc3ccc(Oc4ccccc4)cc3)c2cc1OC` [Src-1 Inhibitor], in experiment [1] (setting [4]), the “Mean OD (active RhoA)” value came out at 0.534 and the “Percent Inhibition vs. Thrombin” value is on record as 85.85%. In addition, in experiment [1] (setting [5]), the “Mean OD (active RhoA)” value was 0.349 and the “Percent Inhibition vs. Untreated Control” value is recorded as 23.21%.
Regarding `O=C(O)CC[C@@H]1NC(=O)[C@H](Cc2ccc(O)cc2)NC1=O` [YE-DKP], the “ECIS as compared to untreated cells” value in experiment [2] (50 μM) is listed as “did not show a significant increase in ECIS”. Moreover, in experiment [2] (100 μM), the “ECIS increase at its maximum” value was “about 20%”, the “persistence of ECIS increase” value was “persisted for the remainder of the experiment”, the “start of ECIS increase” value is listed as “about 6 hours” and the “time at which ECIS increase became significant” value is recorded as “about 12 hours”. Besides, in experiment [2] (100 μM), the “time at which resistance increased again” value is “about 29 hours”, the “time at which resistance returned to the levels of the control” value is “around 28 hours”, the “time of reaching significance again” value was “about 33 hours” and the “ECIS as compared to untreated cells” value was “increase in ECIS”.
For the compound TNFα [reference compound], the “F-actin staining pattern (stress fibers)” value in experiment [3] (TNFα 1 ng/ml alone, 15 minutes to 3 hours) is recorded as “stress fibers were seen at all times”.
Take Thrombin: the “Mean OD (active RhoA)” value in experiment [1] (passage 8 cells, 0.1 U/ml thrombin alone) turned out to be 0.561; in experiment [1] (passage 12 cells, 0.1 U/ml thrombin alone), 1.013. Besides, the “active Rho A levels induced” value in experiment [1] (passage 8 cells) and in experiment [1] (passage 12 cells) was “very high” throughout.
